Among the data in PubChem BioAssay AID1259411 (Chemical Carcinogenesis Research Information System (CCRIS), 2018) are carcinogen call values, retold here.

The series relates to rodent carcinogenicity bioassays, tumor incidence. In words: CCRIS carcinogenicity studies. In a few lines: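 Archive of carcinogenicity, mutagenicity, tumor promotion and tumor inhibition results drawn from journals, NCI reports and other sources, expert-reviewed; covers 1985-2011 and is no longer updated.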

Activity calls are given as the source filed them. No rule for the calls is given here.

For the molecule `O=[N+]([O-])c1ccc(Cl)cc1`, the carcinogen call (Species: MOUSE, Strain/Sex: CD-1/MALE,FEMALE, Route: ORAL, Tumor Site: Type of Lesion: BLOOD VESSELS) was “active; positive”.
`O=C(O)c1ccc(N=Nc2ccc(O)c(C(=O)O)c2)cc1`: the carcinogen call was “inactive; negative” (Species: MOUSE, Strain/Sex: NMRI/FEMALE, Route: ORAL, Dose: 0, 100, 300, 900 MG/KG BW/D IN DIET FOR 107 WK (HIGH DOSE INCREASED TO 1800 MG/KG BW FROM WK 21) (STUDY DURATION: 107 WK, Dose: 0, 100, 300, 900 MG/KG BW/D IN DIET FOR 107 WK (HIGH DOSE INCREASED TO 1800 MG/KG BW FROM WK 21) (STUDY DURATION: 107 WK); “inactive; negative” (Species: MOUSE, Strain/Sex: NMRI/MALE, Route: ORAL, Dose: 0, 100, 300, 900 MG/KG BW/D IN DIET FOR 120 WK (HIGH DOSE INCREASED TO 1800 MG/KG BW FROM WK 21) (STUDY DURATION: 120 WK, Dose: 0, 100, 300, 900 MG/KG BW/D IN DIET FOR 120 WK (HIGH DOSE INCREASED TO 1800 MG/KG BW FROM WK 21) (STUDY DURATION: 120 WK); “inactive; negative” (Species: RAT, Strain/Sex: SPRAGUE-DAWLEY/MALE, Route: ORAL, Dose: 0, 300, 900, 2700 MG/KG BW/D IN DIET FOR 118 WK (HIGH DOSE REDUCED TO 1800 MG/KG BW FROM WK 68) (STUDY DURATION: 118 WK), Dose: 0, 300, 900, 2700 MG/KG BW/D IN DIET FOR 118 WK (HIGH DOSE REDUCED TO 1800 MG/KG BW FROM WK 68) (STUDY DURATION: 118 WK)); “inactive; negative” (Species: RAT, Strain/Sex: SPRAGUE/DAWLEY/FEMALE, Route: ORAL, Dose: 0, 300, 900, 2700 MG/KG BW/D IN DIET FOR 119 WK (HIGH DOSE REDUCED TO 1800 MG/KG BW FROM WK 68) (STUDY DURATION: 119 WK), Dose: 0, 300, 900, 2700 MG/KG BW/D IN DIET FOR 119 WK (HIGH DOSE REDUCED TO 1800 MG/KG BW FROM WK 68) (STUDY DURATION: 119 WK)).
Consider `O=NN(CCO)C(=O)NCCCl`, for which the carcinogen call runs as follows: (Species: RAT, Strain/Sex: F344/FEMALE, Route: ORAL, Dose: 0, 42 MG/L IN DRINKING WATER 5 D/WK FOR 30 WK (STUDY DURATION: LIFETIME), Tumor Site: Type of Lesion: LIVER: TUMOR, UTERUS: TUMOR, SKIN: TUMOR, Tumor Site: Type of Lesion: LIVER: TUMOR, UTERUS: TUMOR, SKIN: TUMOR) “active; positive”; (Species: RAT, Strain/Sex: F344/MALE, Route: ORAL, Dose: 0, 42 MG/L IN DRINKING WATER 5 D/WK FOR 30 WK (STUDY DURATION: LIFETIME), Tumor Site: Type of Lesion: LIVER: TUMOR, LUNG: TUMOR, MESOTHELIUM: TUMOR, SKIN: TUMOR, Tumor Site: Type of Lesion: LIVER: TUMOR, LUNG: TUMOR, MESOTHELIUM: TUMOR, SKIN: TUMOR) “active; positive”.
As to `CC(=O)Nc1ccc2ccc3cccc4ccc1c2c34`, the carcinogen call reads like this: (Species: RAT, Strain/Sex: STRAIN-CD/FEMALE, Route: INTRAPERITONEAL, Dose: 0, 67 UMOL/KG BW IN DMSO 3/WK FOR 4 WK (STUDY DURATION: 61 WK)) “inactive; negative”; (Species: RAT, Strain/Sex: STRAIN-CD/FEMALE, Route: INTRAPERITONEAL, Dose: 0, 67 UMOL/KG/BW IN 25 UMOL/ML DMSO 3/WK FOR 4 WK (TOTAL DOSE: 0; 119 UMOL) ADMINISTERED TO WEANLING RATS (STUDY DURATIO, Dose: 0, 67 UMOL/KG/BW IN 25 UMOL/ML DMSO 3/WK FOR 4 WK (TOTAL DOSE: 0; 119 UMOL) ADMINISTERED TO WEANLING RATS (STUDY DURATIO) “inactive; negative”.
As to `ClC(Cl)c1ccccc1`, the carcinogen call is “inactive; negative” (Species: RAT, Strain/Sex: F344/FEMALE, Route: ORAL, Dose: 0, 0.1, 0.5, 2% IN FEED FOR 104 WK (STUDY DURATION: 104 WK), Dose: 0, 0.1, 0.5, 2% IN FEED FOR 104 WK (STUDY DURATION: 104 WK)) and “inactive; negative” (Species: RAT, Strain/Sex: F344/MALE, Route: ORAL, Dose: 0, 0.1, 0.5, 2% IN FEED FOR 104 WK (STUDY DURATION: 104 WK), Dose: 0, 0.1, 0.5, 2% IN FEED FOR 104 WK (STUDY DURATION: 104 WK)).
